Measured values reported in patent publication US12440475B2, “Hodgkin lymphoma therapy” (priority 2016, dated 2025).

Key:
KMH2 = test: Clonogenic survival in methylcellulose, KMH2; format: cell-based, human; conditions: lowest doses (0.1 and 0.5 μmol)
Protocol: In all examples, the human Hodgkin lymphoma-derived cell lines L428, L428-c, KMH2, L591, L540, L1236, HDLM2 and SUP-HD were obtained from Dr Steffen Junker (Aarhus University Denmark). All cell lines were cultured in Gibco RPMI 1640 medium supplemented with Glutamax, 10% FBS and antibiotics at 37° C. […] The immunophenotype, P53 status and MSI characterization of the Hodgkin lymphoma cell lines was determined using anti-CD30, CD15, CD20 and CD14 antibodies.
This test was performed on four Hodgkin lymphoma cell lines (L428, L428s, KMH2 and L540). Each was cultured with EDO-S101 at doses of 0, 0.1, 0.5, 1, 10 and 20 μmol in DMSO. The cell lines were cultured in methylcellulose (Stem cell Technologies) at a concentration of 10^5/ml at 37° C. and 5% CO2. The surviving fraction was determined by measuring the viability of colonies generated before and after exposure. Only colonies with more than 50 cells were counted. Each data point represents the average and SD from three independent experiments performed in triplicate.

[1] = system: Hodgkin lymphoma cell lines; test: Proliferation and IC50 determination (MTS assay; manual counting using Trypan blue); format: cell-based; conditions: Homo sapiens, 48 h, range over all cell lines
Protocol: Nine Hodgkin lymphoma cell lines were cultured at 37° C. in 24-well plates at a concentration of 0.3×10^6 cells/ml in the presence of EDO-S101 at concentrations of 0, 5, 10, 15 and 20 μmol in DMSO for 24 hours and 48 hours and the proliferation of the cells was determined using a non-radioactive cell proliferation MTS assay with CellTiter 96® Aqueous One solution reagent obtained from Promega® (this is a colorimetric method for determining the number of viable cells in a proliferation comprising a tetrazolium compound [3-(4,5-dimethylthiazol-2-yl)-5-(3-carboxymethoxyphenyl)-2-(4-sulfophenyl)-2H-tetrazolium, inner salt; MIS). The proliferation was plotted against concentration of EDO-S101 for treatment after both 24 and 48 hours.

[2] = system: Hodgkin lymphoma cell lines; test: Apoptosis by annexin V-FITC and Hoechst double staining, 7 cell lines; format: cell-based, human; conditions: 5 μM; 24 h and 48 h; all cells
Protocol: (§1) This assay was performed on 7 cell lines (HDLM2 was excluded due to the low number of available cells) at 24 h and 48 h following EDO-S101 treatment (5 μM, DMSO). Control cells were cultured in the same final concentration of DMSO. Only viable cells (using Hoechst staining) were focused on, and all necrotic cells were excluded. Apoptosis was determined using annexin V-FITC and Hoechst (33342) double staining according to the manufacturer's instructions (BD Biosciences). Cell-cycle fractions were determined by Hoechst nuclear staining. Briefly, cells were harvested, washed in PBS, incubated with annexin V-FITC and Hoechst solution for 30 minutes at room temperature. Data were collected using a FACSCalibur flow cytometer (BD Biosciences) and analyzed with FlowJo Version 7.5.5 obtainable from FlowJo, LLC. Results represent the mean value of 3 independent experiments.

L540 = test: Apoptosis by annexin V-FITC and Hoechst double staining, L540; format: cell-based, human; conditions: 5 μM, 24 h and 48 h
Protocol: as §1

[3] = Weight of xenografted NSG mice after EDO-S101; format: in vivo
Protocol: (§2) Two independent experiments were performed to investigate the dose-effect of EDO-S101 in NSG mice eight weeks after xenografting with L428 cells as in Example 8. The aim of the protocol shown in FIG. 8B was to evaluate the effect of sequential treatment with a moderate dose of 60 mg/kg given at an interval of three weeks.
This weight loss was also observed in mice treated with the vehicle. In contrast, the weight of the control mice receiving only freshly prepared phosphate buffered saline (PBS) buffered to 7.3-7.4 increased up to 11 weeks and then started to decrease.
The toxicity of the dose of 80 mg/kg compared to 60 mg/kg was investigated, as compared to the control groups vehicle and PBS.

L428 cells = test: Orbital tumour mass at injection site in xenografted NSG mice; format: in vivo; conditions: after EDO-S101 injection
Excerpt: Immunodeficient NOD-SCID-gammac−/− (NSG) mice aged 5 to 6 weeks were purchased from Charles River (NOD.Cg-Prkdcscid II2rgtm1Wjl/SzJ). The mice arrived two weeks before the beginning of the experiments and were housed in micro-isolator cages during the entire course of the study. Immediately prior to the injection of Hodgkin lymphoma cells, mice were exposed to 3 Gy gamma irradiation using an IBL637 ^137Cs irradiator at a dose rate of 0.61 Gy/min. From 10^3 to 10^6 cells, either from the original cell lines or following amplification, were injected intravenously via the retro-orbital sinus. The mice were sacrificed by cervical dislocation and different organs were analysed and tumoural infiltration examined using multiple techniques.
as §2
Some mice developed an orbital tumour mass at the site of the injection. […] In one mouse only that was treated with two doses of 60 mg/kg of EDO-S101, a regression of the orbital tumour was initially observed followed by re-establishment of the orbital mass 3 weeks later. […]

[4] = Histopathology of non-tumour findings (lung, spleen) in xenografted NSG mice; format: in vivo; design: key: 0: within physiological limits; 1: minimal; 2: mild; 3: moderate; 4: marked; 5: severe
Protocol: Organs were fixed in 4% PFA, trimmed and post-fixed in 70° ethanol. They were then briefly processed using a vacuum inclusion processor and paraffin blocks were prepared. Five micrometer-thick sections were cut from these blocks and the resulting sections were stained with hemotoxylin-eosine (H&E) for histopathological analysis. In addition, IHC was carried out on of the totality of liver and spleen specimens for confirmation of the spread of engrafted cells. The search for single cells or small groups of grafted Hodgkin lymphoma cells was performed using an anti-CD30 antibody (DAKO, France; 1:40, EDTA pH9 pre-treatment) and the Ventana Discovery XT IHC system. Apoptosis and tumour necrosis were analysed.
Microscopic findings were assigned a severity score based upon the following scale: “0”=within physiological limits, “1”=minimal, “2”=mild, “3”=moderate, “4”=marked, “5”=severe. This severity score was attributed according to the size and number of observed lesions.

L1236 = test: Cell cycle checkpoint proteins and gene expression, L1236; format: cell-based, human; conditions: naïve L1236; EDO-S101 alone

Structure (SMILES): Cn1c(CCCCCCC(=O)NO)nc2cc(N(CCCl)CCCl)ccc21 [EDO-S101]
- clones observed (clonogenic survival) (KMH2): only a few clones
- IC50 [1]: 1.6 to 6.3 µM
- sensitivity for apoptosis [2]: high sensitivity
- sensitivity for apoptosis (L540): higher sensitivity
- weight loss, 60 mg/kg versus 80 mg/kg ([3]; single dose 60 mg/kg or 80 mg/kg): no significant difference
- weight of the mice or the different organs ([3]; treated versus untreated mice): No significant difference
- weight of mice ([3]; two doses of 60 mg/kg three weeks apart): weight loss following each administration which was regained after several weeks
- orbital tumour mass at site of injection (L428 cells): signification regression
- Lung, alveolar histiocytosis (score per animal) ([4]; 1*60 mg/kg): 1
- Lung, alveolar histiocytosis (score per animal) ([4]; 1*80 mg/kg): 1
- Spleen, red pulp activation, diffuse (score per animal) ([4]; 2*60 mg/kg): 3
- cell cycle checkpoint proteins, cellular and gene expression changes (L1236): activated cell cycle checkpoint proteins and induced cellular and gene expression changes compatible with the triggering of apoptosis
